Source: paper PMC5574958, “Radiosynthesis and Preclinical Evaluation of [^18F]F-DPA, A Novel Pyrazolo[1,5a]pyrimidine Acetamide TSPO Radioligand, in Healthy Sprague Dawley Rats” (Molecular Imaging and Biology, 2017)

Test: Plasma protein binding (ultrafiltration of plasma after tracer injection)
Format: in vivo, Sprague Dawley rats
Details: 15 min after injection, 30 kDa ultrafiltration, n = 3
Procedure: After 15 min, the animals were sacrificed and the blood was collected into Li-heparin tubes and centrifuged (3000×g, 10 min). A 10-μl aliquot of the plasma was spotted onto a TLC plate; following this, the remaining plasma was filtered by ultrafiltration using Microsep 30K Omega (Pall Life Sciences, Mexico) with a cut-off of 30 kDa. A 10-μl aliquot of the resulting supernatant was also spotted onto the TLC plate. The plates were exposed onto an imaging plate (Fuji BAS Imaging Plate TR2025, Fuji Photo Film Co., Ltd., Tokyo, Japan) for approximately two half-lives of fluorine-18 (3.5 to 4 h). After the exposure, the imaging plates were scanned using a BAS-5000 reader (Fuji, Japan) with a resolution of 50 μm and the saved images were analyzed using TINA software (version 2.10 g, Raytest, Isotopenmessgeräte, GmbH, Straubenhardt, Germany).

Fraction of radioactivity unbound to the plasma proteins: 6.6 ± 3.1%
SMILES: CCN(CC)C(=O)Cc1c(-c2ccc([18F])cc2)nn2c(C)cc(C)nc12 [[^18F]F-DPA]
